Results on one compound are retold here after patent US12617767B2, “Crystalline forms of somatostatin modulators” (Crinetics Pharmaceuticals, Inc., priority 2019, dated 2026).

The nature of the data set: Kinetic solubility studies in FaSSIF and FeSSIF. Conditions: 37° C.; for solubility thermodynamic at 1 day: thermodynamic from solid, read-out: Concentration. In kind it is physicochemical. Here is the method:
The solubility of the dimesylate (Pattern B) and mono-HCl salts of Compound A was determined in FaSSIF (pH 6.5) at 37° C. after a slurry time of 5, 20 and 40 minutes. FaSSIF was warmed to 37° C. and added to a vial of ca. 9 mg of the salt to mark t=0. The mixture was kept stirring at 37° C. and a sample drawn with a syringe at t+5, 20 and 40 minutes. The samples were syringe filtered and the filtrate was diluted 2× to ensure no precipitation while waiting for HPLC analysis. The pH of the solution collected at 40 minutes was measured. The slurry was sampled again the following day and the supernatant from syringe filtration was analyzed directly by HPLC without dilution. The same experiment was run with FeSSIF (pH 5.0).

Where two headings read alike, the source gives them in different places.

As to `CS(=O)(=O)O.CS(=O)(=O)O.N#Cc1cccc(-c2ccc3ncc(-c4cc(F)cc(F)c4)c(N4CCC(N)CC4)c3c2)c1O` [Pattern B, 3-(4-(4-aminopiperidin-1-yl)-3-(3,5-difluorophenyl)quinolin-6-yl)-2-hydroxybenzonitrile dimesylate], the “pH of the solution collected at 40 minutes” value is, setting by setting: (FaSSIF (pH 6.5)) 6.22; (FeSSIF (pH 5.0)) 4.94. This compound also came in with a Concentration (FaSSIF (pH 6.5), 5 min) of 13 µg/mL; a Concentration (FaSSIF (pH 6.5), 20 min) of 15 µg/mL; a Concentration (FaSSIF (pH 6.5), 40 min) of 13 µg/mL; a Concentration (FeSSIF (pH 5.0), 5 min) of 559 µg/mL; a Concentration (FeSSIF (pH 5.0), 20 min) of 565 µg/mL; a Concentration (FeSSIF (pH 5.0), 40 min) of 559 µg/mL. The solubility thermodynamic at 1 day reads like this: (FaSSIF (pH 6.5)) 8 µg/mL; (FeSSIF (pH 5.0)) 502 µg/mL.
